Reference: patent US6825172B2, “3-descladinosyl-6-O-carbamoyl and 6-O-carbonoyl macrolide antibacterial agents” (Janssen Pharmaceutica, NV, priority 2002, dated 2004)
Converted amounts (≈) assume the structure as drawn. Read-outs that look alike come from different tables or passages of the source.

What was measured:
Test in all cases: MIC, microdilution broth method (NCCLS)
Format in all cases: cell-based
[1] = tested on: E. faecalis ATCC29212; conditions: Enterococcus faecalis, read-out: MIC Values, C: E. faecalis ATCC29212
Method in brief: (§1)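 NCCLS M7-A4 broth microdilution: two-fold drug dilutions in cation-adjusted Mueller-Hinton broth, inoculum approximately 5×10^4 CFU/well. Trays incubated at 35 °C for 16-20 hours. MIC read by comparing growth to compound-free growth controls.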

[2] = tested on: S. aureus ATCC29213; conditions: Staphylococcus aureus, read-out: MIC Values, B: S. aureus ATCC29213
Method in brief: as §1

[3] = tested on: E. coli OC2605; conditions: Escherichia coli
Method in brief: as §1

[4] = tested on: H. influenzae ATCC49247; conditions: Haemophilus influenzae, read-out: MIC Values, E: H. influenzae ATCC49247
Method in brief: as §1

[5] = tested on: S. pneumoniae ATCC49619; conditions: Streptococcus pneumoniae, read-out: MIC Values, D: S. pneumoniae ATCC49619
Method in brief: as §1

[6] = Table 1, 6-Carbamoyl-3-Acyl Macrolide Derivatives
[7] = Table 1, 6-Carbamoyl-3-Acyl Macrolide Derivatives, read-out: MIC Values, A: E. coli OC2605
[8] = Table 2, 3,6-Dicarbamoyl Macrolide Derivatives
[9] = Table 2, 3,6-Dicarbamoyl Macrolide Derivatives, read-out: MIC Values, A: E. coil OC2605

SMILES	MIC [1, 6]	MIC [2, 6]	MIC [3, 7]	MIC [4, 6]	MIC [5, 6]	MIC [1, 8]	MIC [2, 8]	MIC [3, 9]	MIC [4, 8]	MIC [5, 8]
CC[C@H]1OC(=O)[C@H](C)[C@@H](OC(=O)Cc2cccnc2)[C@H](C)[C@@H](O[C@@H]2O[C@H](C)C[C@H](N(C)C)[C@H]2O)[C@](C)(OC(=O)NC/C=C/c2cnc(C(F)(F)F)nc2)C[C@@H](C)C(=O)[C@H](C)[C@H]2NC(=O)O[C@@]21C [Compound 38]	0.5 µg/mL (≈ 0.527 µM)	2 µg/mL (≈ 2.11 µM)	> 16 µg/mL	4 µg/mL (≈ 4.21 µM)	0.12 µg/mL (≈ 0.126 µM)	–	–	–	–	–
CC[C@H]1OC(=O)[C@H](C)[C@@H](OC(=O)Cc2cccnc2)[C@H](C)[C@@H](O[C@@H]2O[C@H](C)C[C@H](N(C)C)[C@H]2O)[C@](C)(OC(=O)NC/C=C/c2cnc(C3CC3)nc2)C[C@@H](C)C(=O)[C@H](C)[C@H]2NC(=O)O[C@@]21C [Compound 39]	0.5 µg/mL (≈ 0.543 µM)	1 µg/mL (≈ 1.09 µM)	16 µg/mL (≈ 17.4 µM)	2 µg/mL (≈ 2.17 µM)	0.06 µg/mL (≈ 0.0651 µM)	–	–	–	–	–
CC[C@H]1OC(=O)[C@H](C)[C@@H](OC(=O)Cc2cccnc2)[C@H](C)[C@@H](O[C@@H]2O[C@H](C)C[C@H](N(C)C)[C@H]2O)[C@](C)(OC(=O)NC/C=C/c2cncnc2)C[C@@H](C)C(=O)[C@H](C)[C@H]2NC(=O)O[C@@]21C [Compound 40]	0.5 µg/mL (≈ 0.568 µM)	1 µg/mL (≈ 1.14 µM)	> 16 µg/mL	2 µg/mL (≈ 2.27 µM)	0.12 µg/mL (≈ 0.136 µM)	–	–	–	–	–
CC[C@H]1OC(=O)[C@H](C)[C@@H](OC(=O)Cc2cccnc2)[C@H](C)[C@@H](O[C@@H]2O[C@H](C)C[C@H](N(C)C)[C@H]2O)[C@](C)(OC(=O)NC/C=C/c2cnc(C(C)C)nc2)C[C@@H](C)C(=O)[C@H](C)[C@H]2NC(=O)O[C@@]21C [Compound 41]	0.5 µg/mL (≈ 0.542 µM)	1 µg/mL (≈ 1.08 µM)	> 16 µg/mL	4 µg/mL (≈ 4.33 µM)	0.12 µg/mL (≈ 0.13 µM)	–	–	–	–	–
CC[C@H]1OC(=O)[C@H](C)[C@@H](OC(=O)/C(=N/OC)c2cccnc2)[C@H](C)[C@@H](O[C@@H]2O[C@H](C)C[C@H](N(C)C)[C@H]2O)[C@](C)(OC(=O)NC/C=C/c2ccc(-c3ncccn3)cc2)C[C@@H](C)C(=O)[C@H](C)[C@H]2NC(=O)O[C@@]21C [Compound 43]	1 µg/mL (≈ 1 µM)	1 µg/mL (≈ 1 µM)	16 µg/mL (≈ 16 µM)	8 µg/mL (≈ 8 µM)	0.12 µg/mL (≈ 0.12 µM)	–	–	–	–	–
CC[C@H]1OC(=O)[C@H](C)[C@@H](OC(=O)Nc2ccc(OC)nc2)[C@H](C)[C@@H](O[C@@H]2O[C@H](C)C[C@H](N(C)C)[C@H]2O)[C@](C)(OC(=O)NC/C=C/c2ccc(-c3ncccn3)cc2)C[C@@H](C)C(=O)[C@H](C)[C@H]2NC(=O)O[C@@]21C [Compound 50]	–	–	–	–	–	0.5 µg/mL (≈ 0.506 µM)	1 µg/mL (≈ 1.01 µM)	> 16 µg/mL	4 µg/mL (≈ 4.05 µM)	0.12 µg/mL (≈ 0.121 µM)
CC[C@H]1OC(=O)[C@H](C)[C@@H](OC(=O)NC2CCCCC2)[C@H](C)[C@@H](O[C@@H]2O[C@H](C)C[C@H](N(C)C)[C@H]2O)[C@](C)(OC(=O)NC/C=C/c2ccc(-c3ncccn3)cc2)C[C@@H](C)C(=O)[C@H](C)[C@H]2NC(=O)O[C@@]21C [Compound 51]	–	–	–	–	–	0.5 µg/mL (≈ 0.519 µM)	1 µg/mL (≈ 1.04 µM)	> 16 µg/mL	2 µg/mL (≈ 2.08 µM)	0.12 µg/mL (≈ 0.125 µM)
CC[C@H]1OC(=O)[C@H](C)[C@@H](OC(=O)Nc2ccc(F)cc2)[C@H](C)[C@@H](O[C@@H]2O[C@H](C)C[C@H](N(C)C)[C@H]2O)[C@](C)(OC(=O)NC/C=C/c2ccc(-c3ncccn3)cc2)C[C@@H](C)C(=O)[C@H](C)[C@H]2NC(=O)O[C@@]21C [Compound 52]	–	–	–	–	–	1 µg/mL (≈ 1.03 µM)	1 µg/mL (≈ 1.03 µM)	> 16 µg/mL	4 µg/mL (≈ 4.1 µM)	0.12 µg/mL (≈ 0.123 µM)
CC[C@H]1OC(=O)[C@H](C)[C@@H](OC(=O)Nc2ccc3ccccc3c2)[C@H](C)[C@@H](O[C@@H]2O[C@H](C)C[C@H](N(C)C)[C@H]2O)[C@](C)(OC(=O)NC/C=C/c2ccc(-c3ncccn3)cc2)C[C@@H](C)C(=O)[C@H](C)[C@H]2NC(=O)O[C@@]21C [Compound 53]	–	–	–	–	–	1 µg/mL (≈ 0.993 µM)	2 µg/mL (≈ 1.99 µM)	> 16 µg/mL	> 16 µg/mL	0.25 µg/mL (≈ 0.248 µM)
CC[C@H]1OC(=O)[C@H](C)[C@@H](OC(=O)Nc2ccc(Cl)c(Cl)c2)[C@H](C)[C@@H](O[C@@H]2O[C@H](C)C[C@H](N(C)C)[C@H]2O)[C@](C)(OC(=O)NC/C=C/c2ccc(-c3ncccn3)cc2)C[C@@H](C)C(=O)[C@H](C)[C@H]2NC(=O)O[C@@]21C [Compound 54]	–	–	–	–	–	2 µg/mL (≈ 1.95 µM)	2 µg/mL (≈ 1.95 µM)	> 16 µg/mL	16 µg/mL (≈ 15.6 µM)	0.5 µg/mL (≈ 0.487 µM)
CC[C@H]1OC(=O)[C@H](C)[C@@H](OC(=O)N(C)C)[C@H](C)[C@@H](O[C@@H]2O[C@H](C)C[C@H](N(C)C)[C@H]2O)[C@](C)(OC(=O)NC/C=C/c2ccc(-c3ncccn3)cc2)C[C@@H](C)C(=O)[C@H](C)[C@H]2NC(=O)O[C@@]21C [Compound 55]	–	–	–	–	–	0.25 µg/mL (≈ 0.275 µM)	0.5 µg/mL (≈ 0.55 µM)	16 µg/mL (≈ 17.6 µM)	4 µg/mL (≈ 4.4 µM)	0.03 µg/mL (≈ 0.033 µM)
CC[C@H]1OC(=O)[C@H](C)[C@@H](OC(=O)N(CC)CC)[C@H](C)[C@@H](O[C@@H]2O[C@H](C)C[C@H](N(C)C)[C@H]2O)[C@](C)(OC(=O)NC/C=C/c2ccc(-c3ncccn3)cc2)C[C@@H](C)C(=O)[C@H](C)[C@H]2NC(=O)O[C@@]21C [Compound 56]	–	–	–	–	–	0.5 µg/mL (≈ 0.534 µM)	0.5 µg/mL (≈ 0.534 µM)	16 µg/mL (≈ 17.1 µM)	4 µg/mL (≈ 4.27 µM)	0.06 µg/mL (≈ 0.064 µM)
CC[C@H]1OC(=O)[C@H](C)[C@@H](OC(=O)N(C)C(C)C)[C@H](C)[C@@H](O[C@@H]2O[C@H](C)C[C@H](N(C)C)[C@H]2O)[C@](C)(OC(=O)NC/C=C/c2ccc(-c3ncccn3)cc2)C[C@@H](C)C(=O)[C@H](C)[C@H]2NC(=O)O[C@@]21C [Compound 57]	–	–	–	–	–	0.5 µg/mL (≈ 0.534 µM)	0.5 µg/mL (≈ 0.534 µM)	16 µg/mL (≈ 17.1 µM)	4 µg/mL (≈ 4.27 µM)	0.06 µg/mL (≈ 0.064 µM)
CC[C@H]1OC(=O)[C@H](C)[C@@H](OC(=O)N(C)Cc2cccnc2)[C@H](C)[C@@H](O[C@@H]2O[C@H](C)C[C@H](N(C)C)[C@H]2O)[C@](C)(OC(=O)NC/C=C/c2ccc(-c3ncccn3)cc2)C[C@@H](C)C(=O)[C@H](C)[C@H]2NC(=O)O[C@@]21C [Compound 58]	–	–	–	–	–	0.25 µg/mL (≈ 0.254 µM)	0.25 µg/mL (≈ 0.254 µM)	> 16 µg/mL	2 µg/mL (≈ 2.03 µM)	0.03 µg/mL (≈ 0.0304 µM)
CC[C@H]1OC(=O)[C@H](C)[C@@H](OC(=O)N(CC)CC)[C@H](C)[C@@H](O[C@@H]2O[C@H](C)C[C@H](N(C)C)[C@H]2O)[C@](C)(OC(=O)NC/C=C/c2cnc3ccccc3c2)C[C@@H](C)C(=O)[C@H](C)[C@H]2NC(=O)O[C@@]21C [Compound 59]	–	–	–	–	–	0.25 µg/mL (≈ 0.275 µM)	0.5 µg/mL (≈ 0.549 µM)	16 µg/mL (≈ 17.6 µM)	4 µg/mL (≈ 4.4 µM)	0.06 µg/mL (≈ 0.0659 µM)
CC[C@H]1OC(=O)[C@H](C)[C@@H](OC(=O)N(C)c2cccnc2)[C@H](C)[C@@H](O[C@@H]2O[C@H](C)C[C@H](N(C)C)[C@H]2O)[C@](C)(OC(=O)NC/C=C/c2ccc(-c3ncccn3)cc2)C[C@@H](C)C(=O)[C@H](C)[C@H]2NC(=O)O[C@@]21C [Compound 60]	–	–	–	–	–	0.5 µg/mL (≈ 0.514 µM)	1 µg/mL (≈ 1.03 µM)	> 16 µg/mL	4 µg/mL (≈ 4.11 µM)	0.06 µg/mL (≈ 0.0617 µM)
CC[C@H]1OC(=O)[C@H](C)[C@@H](OC(=O)N(CC)Cc2cccnc2)[C@H](C)[C@@H](O[C@@H]2O[C@H](C)C[C@H](N(C)C)[C@H]2O)[C@](C)(OC(=O)NC/C=C/c2ccc(-c3ncccn3)cc2)C[C@@H](C)C(=O)[C@H](C)[C@H]2NC(=O)O[C@@]21C [Compound 61]	–	–	–	–	–	0.5 µg/mL (≈ 0.5 µM)	1 µg/mL (≈ 1 µM)	> 16 µg/mL	8 µg/mL (≈ 8 µM)	0.06 µg/mL (≈ 0.06 µM)
CC[C@H]1OC(=O)[C@H](C)[C@@H](OC(=O)N2CCCC2)[C@H](C)[C@@H](O[C@@H]2O[C@H](C)C[C@H](N(C)C)[C@H]2O)[C@](C)(OC(=O)NC/C=C/c2ccc(-c3ncccn3)cc2)C[C@@H](C)C(=O)[C@H](C)[C@H]2NC(=O)O[C@@]21C [Compound 62]	–	–	–	–	–	0.5 µg/mL (≈ 0.535 µM)	0.5 µg/mL (≈ 0.535 µM)	> 16 µg/mL	4 µg/mL (≈ 4.28 µM)	0.06 µg/mL (≈ 0.0642 µM)
CC[C@H]1OC(=O)[C@H](C)[C@@H](OC(=O)N2CCOCC2)[C@H](C)[C@@H](O[C@@H]2O[C@H](C)C[C@H](N(C)C)[C@H]2O)[C@](C)(OC(=O)NC/C=C/c2ccc(-c3ncccn3)cc2)C[C@@H](C)C(=O)[C@H](C)[C@H]2NC(=O)O[C@@]21C [Compound 63]	–	–	–	–	–	0.5 µg/mL (≈ 0.526 µM)	0.5 µg/mL (≈ 0.526 µM)	> 16 µg/mL	4 µg/mL (≈ 4.21 µM)	0.06 µg/mL (≈ 0.0631 µM)
CC[C@H]1OC(=O)[C@H](C)[C@@H](OC(=O)N2CCCCC2)[C@H](C)[C@@H](O[C@@H]2O[C@H](C)C[C@H](N(C)C)[C@H]2O)[C@](C)(OC(=O)NC/C=C/c2ccc(-c3ncccn3)cc2)C[C@@H](C)C(=O)[C@H](C)[C@H]2NC(=O)O[C@@]21C [Compound 64]	–	–	–	–	–	0.5 µg/mL (≈ 0.527 µM)	1 µg/mL (≈ 1.05 µM)	> 16 µg/mL	8 µg/mL (≈ 8.43 µM)	0.06 µg/mL (≈ 0.0632 µM)
CC[C@H]1OC(=O)[C@H](C)[C@@H](OC(=O)N(CC)c2cccnc2)[C@H](C)[C@@H](O[C@@H]2O[C@H](C)C[C@H](N(C)C)[C@H]2O)[C@](C)(OC(=O)NC/C=C/c2ccc(-c3ncccn3)cc2)C[C@@H](C)C(=O)[C@H](C)[C@H]2NC(=O)O[C@@]21C [Compound 65]	–	–	–	–	–	1 µg/mL (≈ 1.01 µM)	1 µg/mL (≈ 1.01 µM)	> 16 µg/mL	8 µg/mL (≈ 8.11 µM)	0.25 µg/mL (≈ 0.254 µM)
